We go through one compound from patent publication US7833551B2, “Inhibition of biogenic sulfide production via biocide and metabolic inhibitor combination” (ConocoPhillips Company, priority 2004, dated 2010).

For the experiment, the system named is sulfate-reducing bacterial (SRB) consortium. Nature of the experiment: Inhibition of sulfate reduction and sulfide production in SRB cultures for one month (MIC and biocide/metabolic inhibitor combinations). It counts as cell-based, sulfate-reducing bacteria (Coleville SRB enrichment). To be noted: 720 h; minimum concentration necessary to prevent sulfide production by SRB for 30 days after contact; compound alone; certain test conditions; read-out: minimum inhibitory concentration (MIC).

Description: The sulfate-reducing bacterial (SRB) consortium used in this study was enriched from produced water obtained from the Coleville oil field near Kindersely, Sadkatchewan, Canada. […] The SRB consortium was maintained by weekly transfer in sPGC medium, and incubated at 30° C. […] The sPGC contained the following components per 1 liter of distilled water: 7 g NaCl; 1.2 g MgCl26H2O; 0.5 g KH2PO4; 1 g NH4Cl; 4.5 g Na2SO4; 0.042 g CaCl22H2O; 0.03 g MgSO47H2O; 0.004 g FeSO47H2O; 0.28 g sodium citrate; 10 g 60% sodium lactate; 1 g yeast extract; and a trace amount of rezazurin.
The cultures used in this study were grown in 100 mL of modified Coleville synthetic brine medium (mCSB) in 160-ml serum bottles, with a headspace of 5% H2, 10% CO2 balance N2. […]
Sulfate was measured using the turbidimetric method described in: American Public Health Association, Standard Methods for the Examination of Water and Wastewater. […]
For each biocide and metabolic inhibitor tested, the minimum inhibitory concentration (MIC; the minimum amount of biocide required to inhibit sulfate reduction and sulfide production in the SRB culture for one month) was determined.

Turning to `O=CCCCC=O` [glutaraldehyde], the MIC was found to be 5 mM.
